Laboratory results: US20220296674A1, “CELL PENETRATING PEPTIDES FOR INTRACELLULAR DELIVERY OF MOLECULES” (INSERM (INSTITUT NATIONAL DE LA SANTÉ ET DE LA RECHERCHE …, priority 2019, published 2022)
Where no end group is shown, it is not given here.

Experiments:
various cell lines [1] = format: cell-based; conditions: data not shown
Method: (§1) FIG. 4 Lack of toxicity and immunogenicity of hAP10 and hAP10DR. (A) The indicated cells were exposed to increasing concentrations of hAP10 or hAP10DR for 20 h. Viability was then assessed by an MTT assay. Data are means±s.e.m. (n=3). (B) Necrotic cell death was monitored by lactate dehydrogenase (LDH) release from cells into the culture medium. The obtained values were normalized to those of the maximum LDH released (completely lysed) control. Data are means±s.e.m. (n=3). […] Mice red blood cells were incubated with 30 μM of hAP10 or hAP10DR. Released hemoglobin was detected by densitometry at 540 nm. Hemoglobin release by cells treated with 1% Triton X-100 was used as 100% lysis control. (D) Levels of IL-6 secretion from RAW 264.7 cells exposed to 10 μM of hAP10 or hAP10DR or LPS (1 μg/ml) for 24 h. Data are means±s.e.m. (n=3).
(§2) Cells survival was assessed with the CellTiter 96® Aqueous One Solution Cell Proliferation Assay kit (Promega, Madison, Wis.). Necrotic plasma membrane permeabilization was assessed by lactate dehydrogenase (LDH) leakage in the culture medium with the CytoTox 96® Non-Radioactive Cytotoxicity Assay kit (Promega, Madison, Wis.).

Mice red blood cells = test: Hemolysis assay; format: cell-based; conditions: 30 μM, 37° C., 1 h; 1% Triton X-100 = 100% lysis
Method: as §1
Mice blood was centrifuged at 2000 rpm for 10 min. Red blood cell pellets were washed five times with PBS and resuspended in normal saline. For each assay, 1×10^7 red blood cells were incubated with or without peptide (30 μM) in normal saline at 37° C. for 1 h. The samples were then centrifuged and the absorbance of the supernatant was measured at 540 nm. To determine the percentage of lysis, absorbance readings were normalized to lysis with 1% Triton X-100.

[2] = system: RAW 264.7 murine macrophages; test: Immunogenicity assay: IL-6 secretion (ELISA); format: cell-based; conditions: 10 μM peptide or LPS 1 μg/ml, 24 h
Method: as §1
RAW 264.7 murine macrophages were seeded (1×10^4 cells/cm^2) in a 24-well plate and allowed to grow for 24 h. Then, cells were left untreated or exposed to the hAP10 or hAP10DR peptides (10 μM) or to LPS (E. Coli O111:b4, 1 μg/ml) as a positive control for 24 h. Levels of IL-6 in the supernatants were analyzed using an Mouse IL-6 Quantikine ELISA Kit (R&D system).

various cell lines [3] = test: Lactate dehydrogenase (LDH) release assay of the shuttle peptides; format: cell-based
Method: as §1, §2

non T-cells (CD3−) = format: cell-based, human
Method: (§3) FIG. 7 RT33 and RT33DR specifically induce primary Sézary cells death. Sézary patients' PBMC were incubated with increasing concentrations of the indicated peptides for 4 h at 37° C. Cells were then analyzed by flow cytometry following labeling with anti-TCRVβ-FITC, -CD4-PE, -CD3-PE-Cy7 mAbs and 7-AAD. Data are shown as the means±s.e.m. of the percentage of 7-AAD+apoptotic cells within the following populations: malignant (CD3^+CD4^+TCR-V β^+) and non-malignant (CD3^+CD4^+TCR-Vβ^−) CD4+T-cells and non T-cells (CD3^−), derived from three different patients.
(§4) PBMC exposed or not to RT33 or RT33DR were processed for flow cytometry to assess cell death. Cells were labelled with a mix of anti-TCR-Vβ-FITC, -CD3-PE and -CD4-PECy7 mAbs (Beckman Coulter). Detection of apoptotic cells was performed using 7AAD (BD Biosciences). Cells were analyzed on a CytoFlex cytometer (Beckman Coulter) and data treated with FlowJo software.

[4] = system: non-malignant (CD3+CD4+TCR-Vβ−) CD4+ T-cells; format: cell-based, human
Method: as §3, §4

HaCat = test: Cell viability (MTT) after RT33 / RT33DR; format: cell-based; conditions: increasing concentrations, 20 h
Method: (§5) FIG. 6 RT33 and RT33DR induces cancer cells, but not normal cells, death. (A) Amino-acid sequence of RT33 and RT3DR. hAP10 and hAP10DR sequences are in bold. (B) The indicated cells were exposed to increasing concentrations of RT33 or RT3DR for 20 h. Viability was then assessed by an MTT assay. Data are means±s.e.m. (n=3). (C) HUT78 cells were exposed to increasing concentrations of RT33 or RT3DR for 20 h in the presence and absence of 50 μM zVAD-fmk or 50 μM Necrostatin-1 (Nec-1). Viability was then assessed by an MTT assay. Data are means±s.e.m. (n=3). (D) HUT78 cells were exposed to 20 μM of RT33 or RT33DR for 3 h. Necrotic cell death was monitored by lactate dehydrogenase (LDH) as in FIG. 4 (B). Data are means±s.e.m. (n=3). (E) Ultrastructural analysis of HUT78 cells treated with 15 μM of hAP10 or hAP10DR for 1 h. (F) Structural prediction of RT33 and RT33DR. The segments corresponding to the hAP10 and hAP10DR moieties are in light grey. (G) Cancerous C8161 cells or non-cancerous MRC-5 cells were exposed to FITC-labelled RT33 or RT33DR for 1 h. Cels were then examined by fluorescence microscopy.
as §2

HUT78 = test: Cell viability (MTT) after RT33 / RT33DR; format: cell-based; conditions: 50 μM zVAD-fmk, 20 h
Method: as §5, §2

MRC-5 = test: Cell viability (MTT) after RT33 / RT33DR; format: cell-based; conditions: increasing concentrations, 20 h
Method: as §5, §2

[5] = system: HUT78 Sézary cell line xenograft tumors; test: Xenograft tumor model of Sézary syndrome; format: in vivo; conditions: systemic administration, single agent
Method: FIG. 8 RT33 and RT33DR inhibit tumor growth in vivo in a mouse model for the Sézary syndrome. (A) Mice were engrafted subcutaneously with HUT78 Sézary cell line. Animals with preexisting tumors were treated daily with i.p. injections of RT33 or RT33DRM in normal saline (5 mg/kg) or normal saline as control. Tumors were calipered throughout the study and data were plotted as means±s.e.m. (n=7 mice per group). p<0.005 relative to control. Subsequently, tumors were excised, stripped of non-tumor tissue and tumors volumes were calculated. (B) Representative pictures of H&E staining of tumors treated with RT33, RT33DRM, or normal saline. The scale bar represents 500 μm.
Animal experiments were approved by The University Board Ethics Committee for Experimental Animal Studies (#2303.01). Xenograft tumors were obtained by subcutaneous injection of 10^6 HUT78 cells in the right flank of 8-week-old female NOD-SCID-gamma (NSG) mice, bred and housed under pathogen-free conditions at our animal facility (IUH, Saint Louis Hospital, Paris, France). Treatment started after randomization when tumors were visible and consisted of daily intraperitoneal (i.p.) injection of normal saline or RT33 or RT33DR in normal saline (n=5 per group). Tumor volume was measured every other day and calculated as: long axis X short axis^2 ×0.5. […]

U2OS cells = test: Live cell fluorescence microscopy of FITC-labelled peptides; format: cell-based; conditions: 5 μM FITC-labelled peptide, 1 h
Method: FIG. 2 Cellular uptake of hAP10 and hAP10DR. (A) HUT78 cells were incubated with 5 μM of FITC-labelled hAP10 and hAP10DR or penetratin and TAT as controls for 1 h in complete medium. Cells were then washed with PBS, incubated in trypsin-EDTA solution (0.01% trypsin) at 37° C. for 10 min, resuspended in PBS and subjected to flow cytometry (right). Left: Bar diagram representing the uptake of the FITC-labelled peptides as mean cellular fluorescence from the flow cytometry analysis of live cells positive for FITC. Data are means±s.e.m. (n=3). (B) Fluorescence quantification of FITC-labelled hAP10 and hAP10DR uptaken in human B lymphocytes. Cells were incubated with 5 μM of FITC-labelled hAP10 and hAP10DR or penetratin and TAT as controls for 1 h in complete medium, washed with PBS and the fluorescence of the cell lysis measured as described in Material and Methods. Data are means±s.e.m. (n=3). (C) Intracellular distribution of FITC-labelled hAP10 and hAP10DR in U2OS cells. U2OS cells grown on coverslips were incubated with 5 μM of FITC-labelled hAP10 and hAP10DR or penetratin and TAT as controls for 1 h in complete medium, washed trice with PBS and live cells were imaged using fluorescence microscopy. […] Following incubation, the cells were washed three times in PBS and imaged using a Zeiss Axiovert 200 M inverted fluorescence microscope.

Substance: AAC-11 specific portion: the AAC-11 specific portion (residues 377-399) alone, without shuttle (LQYFARGLQVYIRQLRLALQGKT; UniProt Q9BZZ5 377-399, looked up, fragment)
- cell viability, AAC-11 portion without shuttle (various cell lines [1]): nor the AAC-11 specific portion alone (not shown) decreased cell viability

Substance: RSRSRDRRRK [hAP10, RSRSRDRRRK]
- hemolytic activity (Mice red blood cells): neither hAP10 nor hAP10DR exhibited hemolytic activity
- secreted IL-6 [2]: no significant IL-6 release was detected
- LDH activity release in the culture medium (membrane disturbance) (various cell lines [3]): did not induce membrane disturbance
- cell viability / cell death of non-T cell population (non T-cells (CD3−)): did not induce cell death
- cell viability / cell death of non-tumoral CD4+ T-cells [4]: did not induce cell death

Substance: RSRSRDRRRKLQYFARGLQVYIRQLRLALQGKT [RT33]
- cell viability of normal cells (HaCat): sparing the normal cells tested
- cytotoxicity in presence of pan-caspase inhibitor zVAD-fmk (HUT78): did not block
- cell viability of normal cells (MRC-5): sparing the normal cells tested
- cell viability / cell death of non-T cell population (non T-cells (CD3−)): neither peptide decreased cell viability
- cell viability / cell death of non-tumoral CD4+ T-cells [4]: neither peptide decreased cell viability
- tolerability in vivo [5]: well tolerated in vivo

Substance: RSRSRRRRRK [hAP10DR, RSRSRRRRRK]
- hemolytic activity (Mice red blood cells): neither hAP10 nor hAP10DR exhibited hemolytic activity
- secreted IL-6 [2]: no significant IL-6 release was detected
- LDH activity release in the culture medium (membrane disturbance) (various cell lines [3]): did not induce membrane disturbance
- cell viability / cell death of non-T cell population (non T-cells (CD3−)): did not induce cell death
- cell viability / cell death of non-tumoral CD4+ T-cells [4]: did not induce cell death

Substance: RSRSRRRRRKLQYFARGLQVYIRQLRLALQGKT [RT33DR]
- cell viability of normal cells (HaCat): sparing the normal cells tested
- cytotoxicity in presence of pan-caspase inhibitor zVAD-fmk (HUT78): did not block
- cell viability of normal cells (MRC-5): sparing the normal cells tested
- cell viability / cell death of non-T cell population (non T-cells (CD3−)): neither peptide decreased cell viability
- cell viability / cell death of non-tumoral CD4+ T-cells [4]: neither peptide decreased cell viability
- tolerability in vivo [5]: well tolerated in vivo

Substance: TAT
- cellular distribution of fluorescence (U2OS cells): both a diffuse and punctuate fluorescence distribution

Substance: lipopolysaccharide [LPS, reference compound]
- secreted IL-6 [2]: elicited a potent cytokine response
